Tested on: A498 complex spheroids with HUVEC/MSC, growth
Experiment: Anticancer human tumor A498 cell line growth inhibition [AhR];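 also: seven day exposure starting three days after spheroid seeding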;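 as to viability, T/C: luminescence signal used as a surrogate for viable cells; luminescence viability scaled so 100% equals DMSO vehicle wells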
Details: for IC50: curve of first compound; for viability, T/C: stronger effect = lower value; active = viability on the fitted dose curve at most 10% of control; inactive = the rest
Summary of the method: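 Spheroids combined tumor cells with HUVEC endothelial cells and human MSCs as stroma. AhR antagonists were paired with standard or investigational drugs, each dosed in half-log steps down from near clinical Cmax, or from 10 microM where Cmax was unknown.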

CC(C)CC(NC(=O)C(Cc1ccccc1)NC(=O)c1cnccn1)B(O)O (stereo not given) + CC(CO)NC(=O)c1cc(-c2ccc(Cl)cc2)nn(-c2cnn(C)c2)c1=O
1.57 nM: IC50 (second compound 10 µM)
inactive: viability, T/C (second compound 0.1 µM, first compound 0.000949 µM) 91.1% | viability, T/C (second compound 0.1 µM, first compound 0.003 µM) 49.4% | viability, T/C (second compound 0.316 µM, first compound 0.000949 µM) 90% | viability, T/C (second compound 0.316 µM, first compound 0.003 µM) 52.6% | viability, T/C (second compound 1 µM, first compound 0.000949 µM) 87.2% | viability, T/C (second compound 1 µM, first compound 0.003 µM) 45.8% | viability, T/C (second compound 3.16 µM, first compound 0.000949 µM) 79.4% | viability, T/C (second compound 3.16 µM, first compound 0.003 µM) 37.6% | viability, T/C (second compound 10 µM, first compound 0.000949 µM) 65.7% | viability, T/C (second compound 10 µM, first compound 0.003 µM) 29.6%
2.95 nM: IC50 (second compound 0.1 µM)
2.13 nM: IC50 (second compound 3.16 µM)
3.2 nM: IC50 (second compound 0.316 µM)
active: viability, T/C (second compound 0.1 µM, first compound 0.00949 µM) 3.71% | viability, T/C (second compound 0.1 µM, first compound 0.03 µM) 0.58% | viability, T/C (second compound 0.1 µM, first compound 0.0949 µM) 2.33% | viability, T/C (second compound 0.1 µM, first compound 0.3 µM) 1.23% | viability, T/C (second compound 0.316 µM, first compound 0.00949 µM) 4.62% | viability, T/C (second compound 0.316 µM, first compound 0.03 µM) 1.25% | viability, T/C (second compound 0.316 µM, first compound 0.0949 µM) 0.46% | viability, T/C (second compound 0.316 µM, first compound 0.3 µM) 1.14% | viability, T/C (second compound 1 µM, first compound 0.00949 µM) 4.69% | viability, T/C (second compound 1 µM, first compound 0.03 µM) 1.75% | viability, T/C (second compound 1 µM, first compound 0.0949 µM) 1.82% | viability, T/C (second compound 1 µM, first compound 0.3 µM) 2.86% | viability, T/C (second compound 3.16 µM, first compound 0.00949 µM) 5.03% | viability, T/C (second compound 3.16 µM, first compound 0.03 µM) 1.11% | viability, T/C (second compound 3.16 µM, first compound 0.0949 µM) 3.08% | viability, T/C (second compound 3.16 µM, first compound 0.3 µM) 0.24% | viability, T/C (second compound 10 µM, first compound 0.00949 µM) 4.31% | viability, T/C (second compound 10 µM, first compound 0.03 µM) 0.81% | viability, T/C (second compound 10 µM, first compound 0.0949 µM) 2.81% | viability, T/C (second compound 10 µM, first compound 0.3 µM) 0.32%
2.67 nM: IC50 (second compound 1 µM)

COc1cc(Nc2ncc3c(n2)-c2ccc(Cl)cc2C(c2c(F)cccc2OC)=NC3)ccc1C(=O)O + CC(CO)NC(=O)c1cc(-c2ccc(Cl)cc2)nn(-c2cnn(C)c2)c1=O
1360 nM: IC50 (second compound 0.316 µM)
455 nM: IC50 (second compound 10 µM)
892 nM: IC50 (second compound 1 µM)
1060 nM: IC50 (second compound 3.16 µM)
1490 nM: IC50 (second compound 0.1 µM)
inactive: viability, T/C (second compound 0.1 µM, first compound 0.0316 µM) 62.6% | viability, T/C (second compound 0.1 µM, first compound 0.1 µM) 69.4% | viability, T/C (second compound 0.1 µM, first compound 0.316 µM) 63.5% | viability, T/C (second compound 0.1 µM, first compound 1 µM) 50.2% | viability, T/C (second compound 0.1 µM, first compound 3.16 µM) 45.3% | viability, T/C (second compound 0.1 µM, first compound 10 µM) 33.2% | viability, T/C (second compound 0.316 µM, first compound 0.0316 µM) 70% | viability, T/C (second compound 0.316 µM, first compound 0.1 µM) 67.9% | viability, T/C (second compound 0.316 µM, first compound 0.316 µM) 64.5% | viability, T/C (second compound 0.316 µM, first compound 1 µM) 50.7% | viability, T/C (second compound 0.316 µM, first compound 3.16 µM) 43.3% | viability, T/C (second compound 0.316 µM, first compound 10 µM) 32.3% | viability, T/C (second compound 1 µM, first compound 0.0316 µM) 60.1% | viability, T/C (second compound 1 µM, first compound 0.1 µM) 67.5% | viability, T/C (second compound 1 µM, first compound 0.316 µM) 61.1% | viability, T/C (second compound 1 µM, first compound 1 µM) 47% | viability, T/C (second compound 1 µM, first compound 3.16 µM) 41.5% | viability, T/C (second compound 1 µM, first compound 10 µM) 33.5% | viability, T/C (second compound 3.16 µM, first compound 0.0316 µM) 55.1% | viability, T/C (second compound 3.16 µM, first compound 0.1 µM) 59.9% | viability, T/C (second compound 3.16 µM, first compound 0.316 µM) 59.1% | viability, T/C (second compound 3.16 µM, first compound 1 µM) 47.2% | viability, T/C (second compound 3.16 µM, first compound 3.16 µM) 42.2% | viability, T/C (second compound 3.16 µM, first compound 10 µM) 30.8% | viability, T/C (second compound 10 µM, first compound 0.0316 µM) 49.6% | viability, T/C (second compound 10 µM, first compound 0.1 µM) 55% | viability, T/C (second compound 10 µM, first compound 0.316 µM) 53.3% | viability, T/C (second compound 10 µM, first compound 1 µM) 44.8% | viability, T/C (second compound 10 µM, first compound 3.16 µM) 37.4% | viability, T/C (second compound 10 µM, first compound 10 µM) 34.9%
